Values joined by “and” are separate entries in the source; they are usually repeats but may differ in a detail not shown here. Equal values may be shown once. “Also recorded” adds a separate entry of the source. Read-outs that look alike come from different tables or passages of the source.
Legend:
[1] = biological target: T1, hCCR5 (Homo sapiens, UniProt P51681); assay: Ligand binding inhibition test for CCR5 under severe washing condition; set-up: expressed in transfected cells; host or cells: CHO-dhfr(-) stably transfected with pEF-BOS-bsr/hCCR5; details: for IC50: hCCR5-CHO cells, compound 40 minutes, washed 8 times with PBS, 4 hours at 37° C., then radioisotope-labeled ligand; for inhibitory activity, times higher than that of SCH-351125 / inhibitory activity, times higher than that of TAK-779: ratio of IC50 values under severe washing condition
Method: Inhibitory effects of CCR5 antagonists (e.g., TAK-779, SCH-351125 and triazaspiro[5.5]undecane derivatives) were examined using a binding test system of CCR5 endogenous ligand to CCR5.
Human CCR5 expressing cells (hCCR5-CHO cells) were inoculated into a culture plate, cultured using a medium (Ham's F-12 medium/10% FBS/Antibiotic-Antimycotic) at 37° C. for 1 day (or 2 days) in a CO2 incubator of 5% CO2 and used in the test. The medium in each well was discarded, the cells were washed with an assay buffer (Ham's F-12 medium/0.5% BSA/20 mmol/l HEPES), and the assay buffer was added to each well. A compound to be tested having respective concentration was added thereto and incubated at room temperature for 40 minutes, and then the cells were washed 8 times with PBS (1 ml/well). The assay buffer was further added and incubated at 37° C. for 4 hours. After 4 hours, the assay buffer was discarded and a radioisotope-labeled ligand was added. The culture mixture containing the cells was incubated at room temperature for 40 minutes and then washed three times with 1 ml/well of ice-cooled PBS. The cells were lysed with 1 mol/I sodium hydroxide aqueous solution, and radioactivity of the cell lysate was measured using a γ counter.

[2] = biological target: T1, hCCR5; assay: Anti-hCCR5 antibody binding inhibition test (flow cytometry); set-up: expressed in transfected cells; host or cells: Ba/F3 cells electroporated with linearised pEF-BOS-bsr/hCCR5, blasticidin-selected clone; details: hCCR5-CHO cells, 10 μmol/l of each compound, FITC-labeled antibody
Method: […] The medium was removed from the flask, and the cells were peeled off and recovered by adding 1 mmol/l EDTA/PBS. The recovered cells were washed once with PBS and again suspended in PBS, and then the number of cells was counted. After centrifugation and subsequent removal of the supernatant by suction, the cells were suspended in an assay buffer (0.5% FBS/Ham's F-12 medium). Each of the compounds to be tested was added to the cell suspension and incubated on ice. An FITC-labeled anti-hCCR5 antibody (45531.111 or 45523.111) or an FITC-labeled isotype control antibody was further added thereto and allowed to undergo the reaction on ice under shading. After the reaction, the cells were washed twice with ice-cooled PBS and again suspended in ice-cooled FACS buffer (2% FBS/PBS), and the amount (fluorescence intensity) of the bound anti-hCCR5 antibody was measured using a flow cytometer (BECTON DICKINSON).

[3] = biological target: T1, hCCR5; assay: Migration test induced by MIP-1α using hCCR5-Ba/F3 cells; type: cell-based; set-up: expressed in transfected cells; host or cells: Ba/F3 cells electroporated with linearised pEF-BOS-bsr/hCCR5, blasticidin-selected clone; details: 24 well transwell, 3 hours; read-out: IC50, inhibition of migration of hCCR5-Ba/F3 cells by MIP-1α
Method: Firstly, 0.5 ml of a medium containing […] was added to the lower chamber (transwell bottom) of a 24 well transwell plate. […] The migration was started by moving the upper chamber wells of the transwell plate to the lower chamber wells containing chemokine. […] Measurement of the number of cells was carried out using a flow cytometer (BECTON DICKINSON), and the number of cells inside the gate (FSC×SSC) was counted. The number of migrated cells was defined as their ratio (%) to the count when the firstly added cells were analyzed by FACS, and the IC50 value was calculated from the inhibitory activity for the DMSO control group.

[4] = biological target: T1, hCCR5; assay: Inhibitory action upon the hCCR5 binding of tritium-labeled compound 1 (competition test); set-up: expressed in transfected cells; host or cells: Ba/F3 cells electroporated with linearised pEF-BOS-bsr/hCCR5, blasticidin-selected clone; details: hCCR5-CHO cells; for inhibition of the hCCR5 binding of tritium-labeled compound 1: when the concentration was increased
Method: Human CCR5 expressing cells (hCCR5-CHO cells) were inoculated into a culture plate, cultured using a medium (Ham's F-12 medium/10% FBS/Antibiotic-Antimycotic) at 37° C. for 1 day in a CO2 incubator of 5% CO2 and used in the test. The medium in each well was discarded, the cells were washed with an assay buffer (Ham's F-12 medium/0.5% BSA/20 mmol/l HEPES), and the assay buffer was added thereto. […] After incubation at room temperature for 2 hours, the cells were washed with 1 ml/well of ice-cooled D-PBS. The cells were lysed with 1 mol/l NaOH and neutralized, and then a scintillator (ACS II, Amersham) was added thereto. Radioactivity of each vial was measured using a liquid scintillation counter (TRI-CARB 2900TR, Perkin Elmer Life Sciences).

[5] = Blood plasma levels of compound 1 in mouse after administration into abdominal cavity; type: in vivo; details: intraperitoneal, Balb/c mouse, read-out: blood plasma level
[6] = biological target: T1, hCCR5; assay: Persistency of hCCR5 binding in the living body of mouse after compound administration; type: in vivo; set-up: expressed in transfected cells; host or cells: Ba/F3 cells electroporated with linearised pEF-BOS-bsr/hCCR5, blasticidin-selected clone; details: Balb/c mouse
Method: The peripheral blood was centrifuged using Lymphocyte-M to prepare PBMC, and the spleen was crushed, subjected to hemolytic treatment and then washed to obtain cells. The thus prepared cells were stained with PE-labeled anti-hCCR5 antibody (45531.111). CFSE-positive hCCR5-Ba/F3 Cells were detected by a flow cytometer, and fluorescence intensity (mean value) of PE-labeled anti-hCCR5 antibodies (2D7 and 45531.111) bound to the cells was measured.
The occupying ratio was calculated by the following formulae.
Correction Value [formula]
Receptor Occupying Ratio (R) [formula]

T1 sequence (P51681 whole entry): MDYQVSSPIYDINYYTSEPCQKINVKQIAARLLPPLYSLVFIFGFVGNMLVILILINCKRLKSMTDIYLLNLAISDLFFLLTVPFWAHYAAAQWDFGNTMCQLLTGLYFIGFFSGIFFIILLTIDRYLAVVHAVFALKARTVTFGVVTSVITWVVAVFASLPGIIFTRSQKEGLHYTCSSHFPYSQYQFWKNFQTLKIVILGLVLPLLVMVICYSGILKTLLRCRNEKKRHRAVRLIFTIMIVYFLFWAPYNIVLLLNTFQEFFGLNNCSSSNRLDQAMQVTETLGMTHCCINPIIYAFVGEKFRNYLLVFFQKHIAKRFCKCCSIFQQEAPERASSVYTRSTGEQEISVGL

Structure (SMILES)	IC50 [1] [nM]	inhibition of binding of anti-hCCR5 antibody 45523.111 to hCCR5 expressing cells [2]	inhibition of binding of anti-hCCR5 antibody 45531.111 to hCCR5 expressing cells [2]	IC50 [3]	inhibition of the hCCR5 binding of tritium-labeled compound 1 [4]	inhibitory activity, times higher than that of SCH-351125 [1]	inhibitory activity, times higher than that of TAK-779 [1]	inhibition of binding of anti-hCCR5 antibody 45531.111 to hCCR5 expressing cells ([2]; hydrochloride)	other results
Cc1ccc(-c2ccc3c(c2)C=C(C(=O)Nc2ccc(C[N+](C)(C)C4CCOCC4)cc2)CCC3)cc1.[Cl-] [TAK-779]	10.4	only weakly; also recorded: weak inhibition	only weakly and weak	55 nM	complete inhibition				
CCO/N=C(\c1ccc(Br)cc1)C1CCN(C2(C)CCN(C(=O)c3c(C)cc[n+]([O-])c3C)CC2)CC1 [SCH-351125]	16.7	inhibited binding; also recorded: strongly inhibited	weak	14.4 nM and 21 nM	complete inhibition				
CCCCN1C(=O)[C@@H]([C@H](O)C2CCCCC2)NC(=O)C12CCN(Cc1ccc(Oc3ccc(C(=O)O)cc3)cc1)CC2.Cl [compound 1, (3R)-1-butyl-2,5-dioxo-3-((1R)-1-hydroxy-1-cyclohexylmethyl)-9-(4-(4-carboxyphenyloxy)phenylmethyl)-1,4,9-triazaspiro[5.5]undecane hydrochloride]		strongly inhibited				about 4 times	about 2.5 times	strongly inhibited; also recorded: strong	concentration at 0.5 h ([5]; 3 mg/kg into abdominal cavity): 352 nM; concentration at 4 h ([5]; 3 mg/kg into abdominal cavity): 5 nM; concentration at 8 h ([5]; 3 mg/kg into abdominal cavity): 1 nM; concentration at 0.5 h ([5]; 30 mg/kg into abdominal cavity): 1610 nM; concentration at 4 h ([5]; 30 mg/kg into abdominal cavity): 22 nM; concentration at 8 h ([5]; 30 mg/kg into abdominal cavity): 4 nM; hCCR5 occupied in the spleen ([6]; 3 mg/kg into abdominal cavity, 0.5 hours): 92%; hCCR5 occupied in the spleen ([6]; 3 mg/kg into abdominal cavity, 4 hours): 55%; hCCR5 occupied in the spleen ([6]; 3 mg/kg into abdominal cavity, 8 hours): 32%; hCCR5 occupied in the spleen ([6]; 30 mg/kg into abdominal cavity, 0.5 hours): 96%; hCCR5 occupied in the spleen ([6]; 30 mg/kg into abdominal cavity, 4 hours): 69%; hCCR5 occupied in the spleen ([6]; 30 mg/kg into abdominal cavity, 8 hours): 54%; competition with TAK-779 and SCH-351125 for CCR5 ([4]; displacement curves shifted in parallel, hydrochloride): competes; also recorded: Competitively antagonizes
CCCCN1C(=O)[C@@H]([C@H](O)C2CCCCC2)NC(=O)C12CCN(Cc1ccc(Oc3ccc(C(=O)NC)cc3)cc1)CC2.Cl [compound 2, (3R)-1-butyl-2,5-dioxo-3-((1R)-1-hydroxy-1-cyclohexylmethyl)-9-(4-(4-methylaminocarbonylphenyloxy)phenylmethyl)-1,4,9-triazaspiro[5.5]undecane hydrochloride]	1.5	strongly inhibited				about 11 times	about 7 times	strongly inhibited; also recorded: strong	
